Experimental data published in publication PMC3502156, “Anti-plasmodial action of de novo-designed, cationic, lysine-branched, amphipathic, helical peptides” (Malaria Journal, 2012).
Where two headings read alike, the source gives them in different places. Starred links: 1 amine or outer side, 2 acyl side, 3 side chain; linkers in the order of their positions; H or OH if unused. Positions of bridges follow the written chain, without caps; N, C: chain ends. Non-standard residues stand in square brackets, D forms with d. Residues, ends and D or L forms follow the SMILES beside them. Chains are numbered I, II in the order given. X1 = O=C(/C(=C/c1ccccc1)N[*:1])[*:2]; X2 = O=C(C(=Cc1ccccc1)N[*:1])[*:2]

Tests used:
[1] = test system: P. falciparum 3D7 (chloroquine-sensitive); experiment: microbe, parasite or virus in culture; assay type: cell-based, Plasmodium falciparum
Method: (§1) Chloroquine-sensitive (3D7) and CQ-resistant (Dd2 and INDO) strains of P. falciparum were maintained in continuous culture according to the method of Trager and Jensen with minor modifications. Cultures were maintained in fresh group O^+ve human erythrocytes suspended at 4% haematocrit in complete medium {16.2 g/L RPMI 1640 containing 25 mM HEPES, 11.11 mM glucose (Gibco), 0.2% sodium bicarbonate (Sigma), 0.5% Albumax I (Gibco), 45 μg/litre hypoxanthine (Sigma) and 50 μg/litre gentamicin (Gibco)} and incubated at 37°C under a gas mixture 5% O2, 5% CO2, and 90% N2. Every day, the spent medium was replaced by fresh complete medium to propagate the culture. […] Parasitaemia was monitored by microscopic examination of Giemsa-stained blood smears. Synchronized ring stage parasite was obtained by 5% sorbitol treatment. Trophozoites and schizont-stage parasites were enriched by using Percoll gradient.
(§2) Stock solutions of peptides and CQ were prepared in water (milli-Q grade) while artemisinin stock solution was in dimethyl sulphoxide (DMSO). All stocks were then diluted with culture medium to achieve the required drug concentrations. The concentration of peptide solution in water was based on A280 [ϵ (M^-1 cm^-1) ΔF (didehydrophenylalanine) 19,000, W (Tryptophan) 5,000)]. Thus ϵ280 were 62,000, 124,000, 124,000 and 248,000 for ΔFm, (ΔFm)2, ΔFd and ΔFq respectively. The concentration of FITC-peptides was based on A495 [ϵ(M^-1 cm^-1) FITC 77,000 for (ΔFm)2 with one FITC and 154,000 for ΔFd with two FITC per molecule]. Drugs and peptides solutions were placed in 96-well flat bottom tissue culture grade plates (Corning).
(§3) For drug screening, SYBR green I based fluorescence assay was used as described previously by Smilkstein et al.[30]. Sorbitol synchronized ring stage parasites (haematocrit: 2%, parasitaemia: 1%, 100 μl) under normal culture conditions were incubated in the absence or presence of increasing concentrations of peptides in water. CQ and artemisinin were used as positive controls. […] After 48 hr of incubation 100 μl of SYBR Green I buffer [0.2 μl of 10,000 X SYBR Green I (Invitrogen) per ml of lysis buffer {Tris (20 mM; pH 7.5), EDTA (5 mM), saponin (0.008%; wt/vol), and Triton X-100 (0.08%; vol/vol)}] was added to each well, mixed twice gently with multi-channel pipette and incubated in dark at 37 °C for 1 h. Fluorescence was measured with a Victor fluorescence multi-well plate reader (Perkin Elmer) with excitation and emission wavelength centred at 485 and 530 nm, respectively. Fluorescence counts for CQ (0.1 μM for 3D7, 1 μM for INDO) were subtracted from counts in each well. The fluorescence counts were plotted against the drug concentration and IC50 (the 50% inhibitory concentration) was determined by analysis of dose–response curves. Results of the above mentioned fluorescence-based assay were validated microscopically by examination of Giemsa-stained smears of peptide-treated parasite cultures. Statistical significance of relative potencies of peptides was determined by student’s T test.

[2] = test system: P. falciparum Dd2 (CQ-resistant); experiment: microbe, parasite or virus in culture; assay type: cell-based, Plasmodium falciparum; settings: for Resistance index IC50 Dd2/ IC50 3D7: IC50 CQ resistant strain/ IC50 CQ sensitive strain
Method: as §1, §2, §3

[3] = test system: P. falciparum 3D7 (chloroquine-sensitive); experiment: microbe, parasite or virus in culture; assay type: cell-based, Plasmodium falciparum; remark: listed apart in the source
[4] = test system: uninfected erythrocytes (URBC); experiment: Haemolysis assay, uninfected red cells; assay type: cell-based, human
Method: (§4) Selectivity of haemolysis by peptides for infected erythrocytes (PRBC) vs uninfected erythrocytes (URBC) was examined by incubating the test molecules with URBCs and PRBCs respectively in phosphate-buffered saline (PBS). Briefly, fresh RBCs were spin washed (1600 RPM; 5 min) three times in PBS and re-suspended in PBS at 2% haematocrit. A 100 μl suspension was added to 96-well plate containing the peptides at different concentrations. […] After incubation at 37°C for 3 hr, the samples were centrifuged and supernatant was used to determine the haemolytic activity measured in terms of haemoglobin release as monitored by […]. Triton-treated control samples were diluted 10-fold before reading absorbance. […] Percent haemolysis has been expressed with reference to 100% haemolysis value assigned to positive control (triton X 100 treated RBCs). To study haemolytic susceptibility of parasitized cells, URBCs were replaced with varying percentages (10% and 20%) of mixed stage parasitized cells. […] Haemolysis of parasitized erythrocytes was also monitored microscopically by examining the Giemsa-stained smears. Parasitaemia of ΔFd treated and untreated cultures were microscopically counted for ring, trophozoite and schizont stages respectively. Susceptibility of different stages was compared with corresponding untreated control cultures.

[5] = test system: infected erythrocytes (PRBC); experiment: Haemolysis assay, parasitized red cells; assay type: cell-based, Plasmodium falciparum; settings: up to 40 μM, 3 hr, A415
Method: as §4

[6] = test system: Plasmodium-infected RBCs (PRBC); experiment: Fluorescence microscopy of FITC-peptide localization; assay type: cell-based, Plasmodium falciparum; settings: 2-3 μM, 30 min, 37°C, complete medium
Method: For studying peptide localization, P. falciparum cultures were individually incubated with FITC-ΔFd (2 μM), FITC-(ΔFm)2 (2 μM) or FITC-Insulin (3 μM) a) alone and b) together with DAPI in complete medium at 37°C for 30 min and the cells were spin washed (1,600 RPM, 5 min) twice with 1 X PBS to reduce background fluorescence. The cells were smeared on a glass slide, and fluorescence was visualized by using the respective filter settings for FITC and DAPI.
For studying the selectivity and route of transport of ΔFd into the red cell-resident malaria parasite, URBC and PRBC were incubated with FITC-ΔFd (4 μM) in parallel sets at 4°C vs at room temperature (25°C) for specified times and spin washed (1,600 RPM, 2 min) with complete medium (3 X 200 μl). The cells were smeared on a glass slide and both bright field images and fluorescence images (using FITC filter) were captured at 100 X magnification using Nikon eclipse fluorescence microscope. The software Adobe Photoshop was used to overlay the fluorescence image on the bright field image.

[7] = 3D7 (chloroquine-sensitive, 48 h)
[8] = ring stage synchronized, haematocrit 2%, parasitaemia 1%, 48 hr, SYBR Green I fluorescence, ± SD of three independent observations, read-out: IC50 P. falciparum 3D7
[9] = 2% haematocrit in PBS, 37°C, 3 hr, haemoglobin release A415, 100% = 0.4% Triton X-100, ± SD of three independent observations

Compound	IC50 [1, 7] [µM]	IC50 ([2]; Dd2 (CQ-resistant, 48 h)) [µM]	HC50 URBC ([4]; 3 h) [µM]	Hemolytic Selectivity index (HC50 URBC/ IC50 Pf 3D7) ([4]; 3 h)	also measured
CC(=O)NCC(=O)NC(=Cc1ccccc1)C(=O)N[C@@H](CCCNC(=N)N)C(=O)N[C@@H](CCCCN)C(=O)NC(=Cc1ccccc1)C(=O)N[C@@H](Cc1c[nH]cn1)C(=O)N[C@@H](CCCCN)C(=O)NC(=Cc1ccccc1)C(=O)N[C@@H](Cc1c[nH]c2ccccc12)C(=O)N[C@@H](C)C(=O)N[C@@H](C)C(=O)NCC(=O)NC(=Cc1ccccc1)C(=O)N[C@@H](CCCNC(=N)N)C(=O)N[C@@H](CCCCN)C(=O)NC(=Cc1ccccc1)C(=O)N[C@@H](Cc1c[nH]cn1)C(=O)N[C@@H](CCCCN)C(=O)NC(=Cc1ccccc1)C(=O)N[C@@H](Cc1c[nH]c2ccccc12)C(=O)N[C@@H](C)C(N)=O [(ΔFm)2] (Ac-G[X2]RK[X2]HK[X2]WAAG[X2]RK[X2]HK[X2]WA-NH2)	2.4 ± 0.15	2.5 ± 0.13	> 50	> 20	Resistance index IC50 Dd2/ IC50 3D7 [2]: 1.04; increment in potency at 96 hr (two cycles) vs 48 hr (one cycle) ([3]; P. falciparum 3D7, SYBR Green assay): 1.5 fold
CCN(CC)CCCC(C)Nc1ccnc2cc(Cl)ccc12 (stereo not drawn) [Chloroquine, reference compound]	–	–	–	–	Resistance index IC50 Dd2/ IC50 3D7 [2]: 4; IC50 ([2]; Plasmodium falciparum, DD2, 48 h, read-out: IC50 P. falciparum Dd2): 0.16 µM; IC50 ([3]; Plasmodium falciparum, 3D7, 48 h, read-out: IC50 P. falciparum 3D7): 0.04 µM
CC(C)C[C@H](NC(=O)[C@H](CCC(N)=O)NC(=O)[C@@H]1CCCN1C(=O)[C@H](CC(C)C)NC(=O)[C@H](CC(=O)O)NC(=O)[C@@H](NC(=O)[C@@H](NC(=O)[C@H](Cc1c[nH]cn1)NC(=O)[C@@H]1CCCN1C(=O)[C@H](CC(C)C)NC(=O)[C@@H]1CCCN1C(=O)[C@@H]1CCCN1C(=O)[C@H](C)NC(=O)[C@H](CO)NC(=O)[C@@H]1CCCN1C(=O)[C@H](CCCNC(=N)N)NC(=O)[C@@H](NC(=O)[C@H](C)NC(=O)CNC(=O)[C@H](CC(C)C)NC(=O)[C@@H]1CCCN1C(=O)[C@H](C)NC(=O)[C@H](CO)NC(=O)[C@H](Cc1c[nH]cn1)NC(=O)[C@H](CC(=O)O)NC(=O)[C@@H]1CCCN1C(=O)[C@@H]1CCCN1C(=O)[C@@H](N)CC(N)=O)[C@@H](C)O)C(C)C)C(C)C)C(=O)NCC(=O)N1CCC[C@H]1C(=O)O [E30, reference compound] (H-NPPDHSAPLGATRPSAPPLPHVVDLPQLGP-OH)	–	–	–	–	IC50 [1, 8]: > 40 µM; haemolysis of infected red cells by control peptides [5]: not to show any haemolysis; HC50 URBC [4, 9]: > 40 µM
CC(=O)NCC(=O)N[C@@H](Cc1ccccc1)C(=O)N[C@@H](CCCNC(=N)N)C(=O)N[C@@H](CCCCN)C(=O)N[C@@H](Cc1ccccc1)C(=O)N[C@@H](Cc1c[nH]cn1)C(=O)N[C@@H](CCCCN)C(=O)N[C@@H](Cc1ccccc1)C(=O)N[C@@H](Cc1c[nH]c2ccccc12)C(=O)N[C@@H](C)C(=O)NCCCC[C@H](NC(=O)[C@H](C)NC(=O)[C@H](Cc1c[nH]c2ccccc12)NC(=O)[C@H](Cc1ccccc1)NC(=O)[C@H](CCCCN)NC(=O)[C@H](Cc1c[nH]cn1)NC(=O)[C@H](Cc1ccccc1)NC(=O)[C@H](CCCCN)NC(=O)[C@H](CCCNC(=N)N)NC(=O)[C@H](Cc1ccccc1)NC(=O)CNC(C)=O)C(N)=O [Fd] (I: Ac-GFRKFHKFWAK-NH2 / II: Ac-GFRKFHKFWA; amide I:11-II:C; N-terminus and C-terminus assumed)	1.5 ± 0.08	–	> 50	> 33	–
CC(=O)NCC(=O)N[C@@H](Cc1ccccc1)C(=O)N[C@@H](CCCNC(=N)N)C(=O)N[C@@H](CCCCN)C(=O)N[C@@H](Cc1ccccc1)C(=O)N[C@@H](Cc1c[nH]cn1)C(=O)N[C@@H](CCCCN)C(=O)N[C@@H](Cc1ccccc1)C(=O)N[C@@H](Cc1c[nH]c2ccccc12)C(=O)N[C@@H](C)C(N)=O [Fm] (Ac-GFRKFHKFWA-NH2)	> 100	> 100	>100	–	–
C[C@H](NC(=O)[C@H](C)NC(=O)[C@H](CCCCN)NC(=O)[C@H](Cc1c[nH]cn1)NC(=O)[C@@H]1CCCN1C(=O)[C@H](CCC(=O)O)NC(=O)[C@@H](N)CCC(=O)O)C(=O)N[C@@H](CO)C(=O)N[C@@H](C)C(=O)N[C@@H](CCC(=O)O)C(=O)NCC(=O)N[C@@H](CCCCN)C(=O)N[C@@H](CCCCN)C(=O)O [Prochitinase, reference compound] (H-EEPHKAASAEGKK-OH)	> 40	–	> 40	–	–
CC(=O)NCC(=O)NC(=Cc1ccccc1)C(=O)N[C@@H](CCCNC(=N)N)C(=O)N[C@@H](CCCCN)C(=O)NC(=Cc1ccccc1)C(=O)N[C@@H](Cc1c[nH]cn1)C(=O)N[C@@H](CCCCN)C(=O)NC(=Cc1ccccc1)C(=O)N[C@@H](Cc1c[nH]c2ccccc12)C(=O)N[C@@H](C)C(N)=O [ΔFm] (Ac-G[X2]RK[X2]HK[X2]WA-NH2)	> 100	> 100	>100	–	–
FITC-insulin: FITC-Insulin (Sigma), control for uptake	–	–	–	–	uptake of FITC-labelled peptide by parasitized cells [6]: no accumulation
I: Ac-G[X1]RK[X1]HK[X1]WAKK-NH2 / II: Ac-G[X1]RK[X1]HK[X1]WAK / III: Ac-G[X1]RK[X1]HK[X1]WA / IV: Ac-G[X1]RK[X1]HK[X1]WA (amide I:11-IV:C, I:12-II:C, II:11-III:C; N-terminus and C-terminus assumed) [ΔFq]	0.25 ± 0.02	–	2.5 ± 0.13	10	–
Insulin: bovine insulin (Sigma), control peptide [reference compound]	–	–	–	–	IC50 [1, 8]: > 40 µM; haemolysis of infected red cells by control peptides [5]: not to show any haemolysis; HC50 URBC [4, 9]: > 40 µM
